As usually defined, the Kd is a measure of binding affinity in units of concentration.

The target of the test is DYRK1A (Homo sapiens, UniProt Q13627). As to the kind of experiment: Affinity testing of compounds with DYRK1A (KD). The class given is binding. The following applies: DYRK1A affinity key classes.
Regarding `c1cc(-c2ccc3ncc(-c4ccc5[nH]ccc5c4)n3n2)ccn1` [Compound 77, 3-(1H-indol-5-yl)-6-(pyridin-4-yl)imidazo[1,2-b]pyridazine], the Kd is 0.5 to 100 nM.
Regarding `Fc1cc(-c2cnc3ccc(-c4ccncc4)nn23)ccc1CN1CCOCC1` [Compound 78, 4-(2-fluoro-4-(6-(pyridin-4-yl)imidazo[1,2-b]pyridazin-3-yl)benzyl)morpholine], the Kd was in the range of 101 to 500 nM.
For `Fc1cc(-c2cnc3ccc(-c4ccncc4)nn23)ccc1CN1CCCCC1` [Compound 79, 3-(3-fluoro-4-(piperidin-1-ylmethyl)phenyl)-6-(pyridin-4-yl)imidazo[1,2-b]pyridazine] the value was 101 to 500 nM.
For `Cc1cc(-c2ccc3ncc(-c4ccc(N5CCOCC5)nc4)n3n2)ccn1` [Compound 80, 4-(5-(6-(2-methylpyridin-4-yl)imidazo[1,2-b]pyridazin-3-yl)pyridin-2-yl)morpholine] the value was 101 to 500 nM.
Regarding `Cc1cc(-c2ccc3ncc(-c4ccc(N5CCCCC5)nc4)n3n2)ccn1` [Compound 81, 6-(2-methylpyridin-4-yl)-3-(6-(piperidin-1-yl)pyridin-3-yl)imidazo[1,2-b]pyridazine], the Kd fell in the range of 101 to 500 nM.
For `c1cc(-c2ccc3ncc(-c4ccc(N5CCN(C6COC6)CC5)nc4)n3n2)ccn1` [Compound 83, 3-(6-(4-(oxetan-3-yl)piperazin-1-yl)pyridin-3-yl)-6-(pyridin-4-yl)imidazo[1,2-b]pyridazine] the value was 0.5 to 100 nM; for `Cc1cc(-c2ccc3ncc(N4CCN(C5COC5)CC4)n3n2)ccn1` [Compound 84, 6-(2-methylpyridin-4-yl)-3-(4-(oxetan-3-yl)piperazin-1-yl)imidazo[1,2-b]pyridazine], 501 to 10000 nM; for `CC(=O)N1CCN(c2cnc3ccc(-c4ccncc4)nn23)CC1` [Compound 85, 1-(4-(6-(pyridin-4-yl)imidazo[1,2-b]pyridazin-3-yl)piperazin-1-yl)ethan-1-one], 501 to 10000 nM.
Then `CN1CCN(c2cnc3ccc(-c4ccncc4)nn23)CC1` [Compound 86, 3-(4-methylpiperazin-1-yl)-6-(pyridin-4-yl)imidazo[1,2-b]pyridazine], with 501 to 10000 nM; and `CN1CCN(c2ccc(-c3cnc4ccc(-c5ccncc5)nn34)cn2)CC1` [Compound 87, 3-(6-(4-methylpiperazin-1-yl)pyridin-3-yl)-6-(pyridin-4-yl)imidazo[1,2-b]pyridazine], with 0.5 to 100 nM; and `Cc1cc(-c2ccc3ncc(-c4ccc(CN5CCCC(F)(F)C5)cc4)n3n2)ccn1` [Compound 89, 3-(4-((3,3-difluoropiperidin-1-yl)methyl)phenyl)-6-(2-methylpyridin-4-yl)imidazo[1,2-b]pyridazine], with 101 to 500 nM.
In the case of `Cc1cc(-c2ccc3ncc(-c4ccc(CN5CCOCC5)cc4)n3n2)ccn1` [Compound 90, 4-(4-(6-(2-methylpyridin-4-yl)imidazo[1,2-b]pyridazin-3-yl)benzyl)morpholine], the Kd lay within 101 to 500 nM.
`Cc1cc(-c2ccc3ncc(-c4ccc(CN5C[C@@H]6C[C@@H]5CO6)cc4)n3n2)ccn1` [Compound 91, (1S,4R)-5-(4-(6-(2-methylpyridin-4-yl)imidazo[1,2-b]pyridazin-3-yl)benzyl)-2-oxa-5-azabicyclo[2.2.1]heptane] had a Kd of 0.5 to 100 nM.
`Cc1cc(-c2ccc3ncc(-c4ccc(CN5CCCCC5)cc4)n3n2)ccn1` [Compound 92, 6-(2-methylpyridin-4-yl)-3-(4-(piperidin-1-ylmethyl)phenyl)imidazo[1,2-b]pyridazine]: the Kd is 101 to 500 nM.
Then `Cc1cc(-c2ccc3ncc(-c4ccc(CN5CCC(C)(C)CC5)cc4)n3n2)ccn1` [Compound 93, 3-(4-((4,4-dimethylpiperidin-1-yl)methyl)phenyl)-6-(2-methylpyridin-4-yl)imidazo[1,2-b]pyridazine], with 101 to 500 nM; and `Cc1cc(-c2ccc3ncc(-c4ccc(CN5CCN[C@H](C)C5)cc4)n3n2)ccn1` [Compound 94, (R)-3-(4-((3-methylpiperazin-1-yl)methyl)phenyl)-6-(2-methylpyridin-4-yl)imidazo[1,2-b]pyridazine], with 0.5 to 100 nM; and `FC1(F)CCCN(Cc2ccc(-c3cnc4ccc(-c5ccncc5)nn34)cc2)C1` [Compound 95], with 501 to 10000 nM.
With `c1cc(-c2ccc3ncc(-c4ccc(CN5CCOCC5)cc4)n3n2)ccn1` [Compound 96, 4-(4-(6-(pyridin-4-yl)imidazo[1,2-b]pyridazin-3-yl)benzyl)morpholine], the Kd was 101 to 500 nM.
Compound `c1cc(-c2ccc3ncc(-c4ccc(CN5CCCCC5)cc4)n3n2)ccn1` [Compound 97, 3-(4-(piperidin-1-ylmethyl)phenyl)-6-(pyridin-4-yl)imidazo[1,2-b]pyridazine] showed a Kd of 0.5 to 100 nM.
Then `FC1(F)CCN(Cc2ccc(-c3cnc4ccc(-c5ccncc5)nn34)cc2)C1` [Compound 98, 3-(4-((3,3-difluoropyrrolidin-1-yl)methyl)phenyl)-6-(pyridin-4-yl)imidazo[1,2-b]pyridazine], with 101 to 500 nM; and `FC1CN(Cc2ccc(-c3cnc4ccc(-c5ccncc5)nn34)cc2)C1` [Compound 99, 3-(4-((3-fluoroazetidin-1-yl)methyl)phenyl)-6-(pyridin-4-yl)imidazo[1,2-b]pyridazine], with 0.5 to 100 nM; and `CN1CCN(Cc2ccc(-c3cnc4ccc(-c5ccncc5)nn34)cc2)CC1` [Compound 100, 3-(4-((4-methylpiperazin-1-yl)methyl)phenyl)-6-(pyridin-4-yl)imidazo[1,2-b]pyridazine], with 101 to 500 nM.
Then `OC1CCCN(Cc2ccc(-c3cnc4ccc(-c5ccncc5)nn34)cc2)C1` (centres unmarked) [Compound 101, 1-(4-(6-(pyridin-4-yl)imidazo[1,2-b]pyridazin-3-yl)benzyl)piperidin-3-ol], with 101 to 500 nM; and `FC1(F)CN(Cc2ccc(-c3cnc4ccc(-c5ccncc5)nn34)cc2)C1` [Compound 102, 3-(4-((3,3-difluoroazetidin-1-yl)methyl)phenyl)-6-(pyridin-4-yl)imidazo[1,2-b]pyridazine], with 101 to 500 nM.
For `c1cc(-c2ccc3ncc(-c4ccc(CN5CCCC5)cc4)n3n2)ccn1` [Compound 103, 6-(pyridin-4-yl)-3-(4-(pyrrolidin-1-ylmethyl)phenyl)imidazo[1,2-b]pyridazine] the value was 101 to 500 nM.
`CC(=O)N1CCN(Cc2ccc(-c3cnc4ccc(-c5ccncc5)nn34)cc2)CC1` [Compound 104, 1-(4-(4-(6-(pyridin-4-yl)imidazo[1,2-b]pyridazin-3-yl)benzyl)piperazin-1-yl)ethan-1-one]: the Kd fell in the range of 0.5 to 100 nM.
Consider `Fc1cnccc1-c1ccc2ncc(-c3ccc(CN4CCOCC4)cc3)n2n1` [Compound 105, 4-(4-(6-(3-fluoropyridin-4-yl)imidazo[1,2-b]pyridazin-3-yl)benzyl)morpholine], for which the Kd lay within 501 to 10000 nM.
For `N#Cc1cnccc1-c1ccc2ncc(-c3ccc(CN4CCOCC4)cc3)n2n1` [Compound 106, 4-(3-(4-(morpholinomethyl)phenyl)imidazo[1,2-b]pyridazin-6-yl)nicotinonitrile] the value was 501 to 10000 nM; for `COc1cc(-c2ccc3ncc(-c4ccc(CN5CCOCC5)cc4)n3n2)ccn1` [Compound 107, 4-(4-(6-(2-methoxypyridin-4-yl)imidazo[1,2-b]pyridazin-3-yl)benzyl)morpholine], 101 to 500 nM.

These data come from US12054483B2, “Small molecule inhibitors of DYRK/CLK and uses thereof” (Arizona Board of Regents on Behalf of the University of …, priority 2018, dated 2024).
